According to patent US9932300B2, “N,N′-diarylurea compounds and N,N′-diarylthiourea compounds as inhibitors of translation initiation” (President and Fellows of Harvard College, priority 2009, dated 2018):

System: eIF2-GTP-Met-tRNAi ternary complex
Experiment: Ternary complex assay (dual luciferase, firefly/renilla ratio) in stable KLN-tTA/pBISA-DL(ATF-4) cells; HTS and hit confirmation
Format: cell-based, mouse
Parameters: Activity 10 uM / Activity 2.5 uM / Activity 5 uM: unit not given here
Conditions: confirmed hits of the screen (Table 5); for Activity 5 uM: compound at 5 uM; for Activity 10 uM: compound at 10 uM; for Activity 2.5 uM: compound at 2.5 uM

| SMILES | Activity 5 uM | Activity 10 uM | Activity 2.5 uM |
| --- | --- | --- | --- |
| Clc1ccc(-c2cc(C3CO3)c3cc(Cl)cc(Cl)c3n2)cc1 (stereo not drawn) [Compound 112369] | 1.4 | 3.1 | – |
| c1ccc(-c2cc3ccccc3[nH]2)nc1 [Compound 112668] | 2.854 | 3.3905 | – |
| CC(=O)Oc1cccc2cc3cc(C)cc(OC(C)=O)c3c(OC(C)=O)c12 [Compound 112921] | – | 242.82 | 97.42 |
| c1ccc2c(c1)cnc1cc3c(cc12)ncc1ccccc13 [Compound 113085] | – | 5.05 | 3.18 |
| CCOC(=O)c1ccc(Nc2nc3ccccc3o2)cc1 [Compound 114995] | – | 3.43 | 2.69 |
| c1ccc(N=Nc2ccc[nH]2)cc1 [Compound 115157] | 7.1 | 40.7 | – |
| Cc1ccc([P+](Cc2ccccc2)(c2ccccc2)c2ccc(C)cc2)cc1 [Compound 116685] | 1.9 | 4.5 | – |
| CN1c2ccc(Br)c[c]2[Sn]([CH3])([CH3])[c]2cc(Br)ccc21 [Compound 118026] | 37.512 | 40.338 | – |
| CN1c2cccc[c]2[Sn]([CH3])([CH3])[c]2ccccc21 [Compound 118028] | – | 4.1 | – |
| CSC1=CC(=O)C=C(C)C1=O [Compound 119026] | 4 | 12.6 | – |
| CCN1/C(=C\c2ccc3cc(C)ccc3[n+]2CC)[Se]c2ccccc21.[I-] [Compound 119675] | – | 8.78 | 5.52 |
| Oc1ccccc1/C=N\N=C\c1ccco1 [Compound 119688] | 2.45 | 3.9 | – |
| CC(C)c1ccc(/C=C2\C=Cc3ccccc32)cc1 [Compound 120440] | 2.3 | 3.8 | – |
| CC(=O)Oc1ccccc1/C=C/NC(=O)OC(C)(C)C [Compound 122241] | 3.2 | 5 | – |
| CCCCCCCCCCCCCCCCCC[n+]1cccc(C(=O)c2ccccc2)c1.[Br-] [Compound 122844] | – | 13.27 | 1.77 |
| CCCCCCCC(=O)[O][Hg][c]1ccccc1 [Compound 122854] | – | 3.2 | – |
| CC(C)=CCC1=CC(=O)c2ccccc2C1=O [Compound 123507] | 2.41 | 10.5 | – |
| CN(C)CC1CC2C3CC=C4CC(O)CCC4(C)C3CCC2(C)C1=O (stereo not drawn) [Compound 124738] | – | 3.7 | 0.79 |
| O=C(CCl)Nc1ccc(O)c2ccccc12 [Compound 125369] | – | 9.98 | 1.08 |
| CCC[CH2][Sn]([CH2]CCC)([CH2]CCC)[CH2]C(C)(C)c1ccccc1 [Compound 126650] | – | 8.04 | 0.64 |
| CCOC(=N)c1cn(C2OC(CO)C(O)C2O)c2nc[nH]c(=O)c12.Cl (stereo not drawn) [Compound 128665] | – | 3.18 | 17.83 |
| O=[N+]([O-])c1cc(Cl)ccc1NC(Nc1ccc(Cl)cc1[N+](=O)[O-])C(Cl)(Cl)Cl [Compound 130140] | – | 19.67 | 0.74 |

| SMILES | Activity 5 uM | Activity 10 uM | Activity 2.5 uM |
| --- | --- | --- | --- |
| CC(=O)Oc1ccc(N(CCCl)CCCl)cc1OC(C)=O [Compound 130216] | – | 4.77 | 0.51 |
| CCCCCc1[nH]nc(C(=O)OC)c1N=NN1CCOCC1 [Compound 131237] | – | 3.3 | 0.87 |
| c1ccc(-c2ccc3c4ccccc4ccn23)cc1 [Compound 131464] | – | 3.99 | 3.63 |
| CC[Si](CC)(CC)[Si](c1ccccc1)(c1ccccc1)c1ccccc1 [Compound 131584] | – | 7.95 | 0.89 |
| N=C(N)c1cn(C2OC(CO)C(O)C2O)c2ncnc(N)c12 (stereo not drawn) [Compound 131663] | – | 8.18 | 7 |
| COc1ccc(Cc2cncc3c(O)c(OC)ccc23)cc1O [Compound 131747] | – | 3.25 | 2.54 |
| CCCCCCCCCCCCOC(=O)c1cc(O)c(O)c(O)c1 [Compound 133463] | 8.8 | 4.63 | – |
| Nc1c(Br)cc2c([nH]c(=O)c3cc(Cl)ccc32)c1Br [Compound 134404] | – | 12.72 | 5.44 |
| Cl.Clc1ccc(C2NC(c3ccc(Cl)cc3)NC(c3ccc(Cl)cc3)N2)cc1 (stereo not drawn) [Compound 135155] | – | 7.19 | 0.94 |
| O=S(=O)(c1ccccc1)N1CC2CC(Br)C(Br)CC21 (stereo not drawn) [Compound 135331] | 15.388 | 31.606 | – |
| C(C[P+](c1ccccc1)(c1ccccc1)c1ccccc1)=C(c1ccccc1)c1ccccc1 [Compound 135741] | 8.605 | 7.226 | – |
| CN1N=C([P+](c2ccccc2)(c2ccccc2)c2ccccc2)CC1(c1ccccc1)c1ccccc1.[I-] [Compound 135744] | 7 | 21.9 | – |
| CCOC(=O)CN1N=C([P+](c2ccccc2)(c2ccccc2)c2ccccc2)CC1(c1ccccc1)c1ccccc1.[Br-] [Compound 135745] | 3.2 | 6.5 | – |
| O=[N+]([O-])c1ccccc1N/N=C\c1c[nH]c2ccccc12 [Compound 135854] | – | 5.75 | 3.56 |
| COc1cccc2c1n([O-])c1cccc(=O)c-1[n+]2[O-].COc1cccc2c1n([O-])c1cccc(=O)c-1[n+]2[O-].[Cu+2] [Compound 136768] | 4.668 | 3.271 | – |
| CCCN(CCC)N=Nc1c(-c2ccccc2)n[nH]c1-c1ccccc1 [Compound 136886] | 2.5 | 28.5 | – |
| CCCCN(C)N=Nc1c(-c2ccccc2)n[nH]c1-c1ccccc1 [Compound 136889] | 3.9 | 16.7 | – |
| CC(=O)Oc1c2c(c(CC=C(C)C)c3c1C(=O)C1=CC4CC5C(C)(C)OC(C/C=C(/C)C(=O)O)(C4=O)C15O3)OC(C)(CCC=C(C)C)C=C2 (stereo not drawn) [Compound 139221] | 2.1 | 9 | – |
| CCCCCCCCCCCCCCNC(=O)C[N+](C)(C)Cc1ccccc1.[Cl-] [Compound 141112] | – | 3.76 | 0.98 |
| N#Cc1ncc(Cl)cc1[N+](=O)[O-] [Compound 141226] | – | 3.5 | 1.05 |
| O=C(Cc1ccccc1)c1ccc2c3c(ccc([N+](=O)[O-])c13)CC2 [Compound 142606] | – | 34.1 | 16.57 |
| CO[C@H]1/C=C/O[C@@]2(C)Oc3c(C)c(O)c4c(O)c(c(/C=N/Nc5ccc([N+](=O)[O-])cc5[N+](=O)[O-])c(O)c4c3C2=O)NC(=O)/C(C)=C\C=C\[C@H](C)[C@H](O)[C@@H](C)[C@@H](O)[C@@H](C)[C@H](OC(C)=O)[C@@H]1C [Compound 144126] | 1.3 | 7.3 | – |

| SMILES | Activity 5 uM | Activity 10 uM | Activity 2.5 uM |
| --- | --- | --- | --- |
| Cl.S=C(N/N=C/c1ccccn1)N/N=C/c1ccccn1 [Compound 146007] | 1.8 | 3.4 | – |
| CC[N+](CC)=c1ccc2nc3c(cc(N)c4ccccc43)oc-2c1.[Cl-] [Compound 146184] | – | – | 3.13 |
| c1ccc(N/N=C(/CC/C(=N\Nc2ccccc2)c2ccccc2)c2ccccc2)cc1 [Compound 146216] | – | 5.04 | 2.73 |
| CC(C)(C)C[CH2][Hg][Cl] [Compound 146249] | – | – | 3.04 |
| CCCCCCCCCCCc1n(Cc2ccccc2)c2ccccc2[n+]1C.[Br-] [Compound 148342] | 14.51 | 19.7555 | – |
| CCCCSC1=CC(=O)c2ccccc2C1=O [Compound 149109] | – | – | 18.18 |
| COc1cccc2c1C(=O)c1c(O)c3c(c(O)c1C2=O)C[C@@](O)(C(=O)COC(C)=O)C[C@@H]3OC1CC(N)C(O)C(C)O1.Cl (stereo partly drawn) [Compound 149581] | 3.5 | 4.3 | – |
| OC(Br)C1C(c2ccccc2)N1C1CCCCC1 (stereo not drawn) [Compound 150279] | – | 3.9 | 0.62 |
| Br.O=C(/C(=C\c1ccccc1)CN1CCOCC1)c1ccc(Br)cc1 [Compound 150311] | 36.67 | 39.7 | – |
| O=C(/C=C(\CN1CCCCC1)c1ccccc1)c1ccccc1 [Compound 150320] | 19.9 | 16.4 | – |
| Cc1ccc2c(c1)SCc1c-2[nH]c2ccccc12 [Compound 150787] | – | 5.6 | 2.94 |
| CC(N)c1ccc(OCCOc2ccc(C(C)(C)CC(C)(C)C)cc2)cc1 (stereo not drawn) [Compound 151117] | – | 12.07 | 0.85 |
| CC(C)(C)CC(C)(C)c1ccc(OCCOc2ccc(C(=O)Nc3ccc([N+](=O)[O-])cc3)cc2)cc1 [Compound 151119] | – | 6.62 | 0.72 |
| CCCCCC[N+](CCCCCC)(CCCCCC)CCCCCC.O=C([O-])c1ccccc1 [Compound 152111] | 10.85 | 10.391 | – |
| CCCCCCCCCCCCCCC[N+](C)(C)C.[Cl-] [Compound 155015] | – | 3.73 | 2.19 |
| CN(C)c1ccc(C(C[N+](=O)[O-])(c2ccc(N(C)C)cc2)c2ccc(N(C)C)cc2)cc1 [Compound 156572] | 7.884 | 7.9345 | – |
| O=C(Nc1ccccc1O)/C(Cl)=C/Cl [Compound 157236] | – | 3.4 | 0.75 |
| CCOC(=O)c1[nH]c(-c2ccc(OC)cc2)c(C(=O)OCC)c1-c1ccccc1 [Compound 157306] | – | 3.94 | 1.77 |
| c1ccc2c(c1)O[As](O[As]1Oc3ccccc3O1)O2 [Compound 157382] | – | 9.04 | 0.68 |
| Cc1cc(C)c(C(=O)Oc2ccc3ccccc3c2)c(C)c1 [Compound 157507] | – | 3.33 | 2.07 |
